Measured values from patent publication US20210369753A1, “NUTRIENT COMPOSITION ABLE TO INHIBIT QUORUM SENSING” (Brilliant Lab LLC, priority 2020, published 2021).
Where two headings read alike, the source gives them in different places.

Columns and labels:
[1] = tested on: C. violaceum; conditions: cited from earlier work
[2] = tested on: S. aureus; conditions: cited from earlier work
[3] = tested on: P. aeruginosa; conditions: cited from earlier work
[4] = tested on: P. fluorescens; conditions: cited from earlier work
[5] = tested on: E. coli; conditions: E. coli O157:H7; cited from earlier work
[6] = tested on: Acinetobacter; conditions: cited from earlier work
[7] = tested on: Burkholderia; conditions: cited from earlier work
[8] = tested on: Pseudomonas aeruginosa (ATCC 10145); experiment: Pyocyanin assay; format: cell-based; conditions: overnight culture, test materials in DMSO and in ethanol
[9] = tested on: Chromobacterium violaceum (CV026); experiment: Halo assay (anti-quorum sensing); format: cell-based; conditions: CV026 agar plate; for Catechin at the highest concentrations
[10] = tested on: P. aeruginosa (ATCC 10145); experiment: Biofilm assay (crystal violet); format: cell-based, Pseudomonas aeruginosa; conditions: 0.25-5 mg/mL, overnight, crystal violet OD 590 nm
Procedure: (§1) Biofilm assay: The biofilm assay was based on the method of Chong, et al. (2011). The model composition and Catechin were prepared at 100 mg/mL in ethanol. Appropriate volumes of each were added to eight replicate wells of a v-well 96-well plate to result in 0.25, 0.5, 1.25 and 5 mg/mL final concentrations for a 200 microliter final volume. The plate was air dried until all of the ethanol has evaporated. From fresh overnight cultures of P. aeruginosa (ATCC 10145) and S. aureus (ATCC 12600), solutions at OD600 of 0.1 were prepared in Nutrient broth/0.5% glucose. Two hundred microliters of the cultures were added to all wells and mixed by pipetting. The plates were covered with breathable films and incubated overnight without shaking at 37 degrees C. The cultures were removed, and the plates rinsed several times with water. Two hundred microliters of 0.1% crystal violet was added to each well and incubated at room temperature for 30 minutes. […] One hundred microliters of the solubilized crystal violet was transferred to a flat-bottom polystyrene plate and the optical density measured at 590 nm.
(§2) BIOFILM ASSAY: The composition of EXAMPLE XI was evaluated for anti-biofilm activity against Pseudomonas aeruginosa and Staphylococcus aureus. […]
(§3) The plates were incubated statically overnight. […] The crystal violet was quantified by measuring the optical density at 590 nm.

[11] = tested on: C. violaceum (CV026); experiment: Violaceum assay (modified, butanol extraction); format: cell-based, Chromobacterium violaceum
Procedure: SUMMARY OF METHODS: (+)-Catechin was used as a positive control in the halo and violaceum assays. Varying concentrations of the composition of EXAMPLE XI or catechin mixed with C. violaceum were added to an agar plate and the generated halo was analyzed both by visual inspection and measurement. Method for Violaceum assays included adding either the composition of EXAMPLE XI or catechin to a solution of C. violaceum (strain CV026). After workup, the solutions were transferred to a 96 well plate and optical density was recorded at 590 nm. Optical density values were normalized to unextracted samples as a control.
Violaceum Assay: The violaceum assay was adapted from the method of Blosser, et al., Journal of Microbiological Methods 2000, 40, pp. 47-55. The model composition and Catechin were suspended/dissolved in ethanol. […] The OD600 of each culture was measured to be used to normalize violaceum levels to total biomass. […] The optical density was measured at 590 nm. The OD590 values were normalized to the biomass measurements determined for the unextracted samples.
VIOLACEUM ASSAY: The Violaceum assay was performed to further corroborate the results obtained in the Halo assay and to provide a quantitative measure of activity. This assay is based on the same principles as for the Halo assay, but since the assay is performed in solution, violaceum production can be more readily quantified. […]

[12] = tested on: S. aureus (ATCC 12600); experiment: Biofilm assay (crystal violet); format: cell-based, Staphylococcus aureus; conditions: 0.25-5 mg/mL, overnight, crystal violet OD 590 nm
Procedure: as §1, §2, §3

[13] = P. aeruginosa, strain not stated

Question: What does the source list for O=C(O)[C@H]1O[C@@H](Oc2cc3oc(-c4ccccc4)cc(=O)c3c(O)c2O)[C@H](O)[C@@H](O)[C@@H]1O [Baicalin]?
Answer: inhibition of quorum sensing ([1]; C. violaceum CV026): inhibits quorum sensing; inhibition of quorum sensing [2]: inhibits quorum sensing

Question: With O=C(/C=C/c1ccc(O)c(O)c1)O[C@@H]1C[C@](O)(C(=O)O)C[C@@H](O)[C@H]1O [Chlorogenic acid] as the compound, how does the “inhibition of quorum sensing” value [3, 13] read?
Answer: Its value is “inhibits quorum sensing”.

Question: With O=CC=Cc1ccccc1 [Cinnamaldehyde] as the compound, how does the “inhibition of quorum sensing” value ([3]; P. aeruginosa PAO1) read?
Answer: The value was “inhibits quorum sensing”.

Question: What about the “inhibition of quorum sensing” value ([1]; C. violaceum CV026) of the same compound?
Answer: The value was “inhibits quorum sensing”.

Question: With O=C(O[C@@H]1Cc2c(O)cc(O)cc2O[C@@H]1c1cc(O)c(O)c(O)c1)c1cc(O)c(O)c(O)c1 [EGCG] as the compound, how does the “inhibition of quorum sensing” value [3, 13] read?
Answer: Its value is “inhibits quorum sensing”.

Question: For COc1ccc([C@@H]2CC(=O)c3c(O)cc(O[C@@H]4O[C@H](CO[C@@H]5O[C@@H](C)[C@H](O)[C@@H](O)[C@H]5O)[C@@H](O)[C@H](O)[C@H]4O)cc3O2)cc1O [Hesperidin], which “inhibition of quorum sensing” value ([1]; C. violaceum, strain not stated) is on record?
Answer: Its value is “inhibits quorum sensing”.

Question: And the “inhibition of quorum sensing” value [4]?
Answer: The value was “inhibits quorum sensing”.

Question: Which “inhibition of quorum sensing” value ([3]; P. aeruginosa PAO1) does the source give for O=C1C[C@@H](c2ccc(O)cc2)Oc2cc(O)cc(O)c21 [Naringenin] here?
Answer: Its value is “inhibits quorum sensing”.

Question: With O=C(/C=C/c1ccc(O)c(O)c1)O[C@H](Cc1ccc(O)c(O)c1)C(=O)O [Rosmarinic acid] as the compound, how does the “inhibition of quorum sensing” value ([3]; P. aeruginosa PAO1) read?
Answer: The value was “inhibits quorum sensing”.

Question: And the “inhibition of quorum sensing” value ([1]; C. violaceum 31532)?
Answer: The value was “inhibits quorum sensing”.

Question: What about the “inhibition of quorum sensing” value ([1]; C. violaceum CV026) of the same compound?
Answer: The value was “inhibits quorum sensing”.

Question: And the “inhibition of quorum sensing” value [5]?
Answer: Its value is “inhibits quorum sensing”.

Question: For C[S+]([O-])CCCCN=C=S (centres unmarked) [Sulforaphane], which “inhibition of quorum sensing” value [3, 13] is on record?
Answer: The value was “inhibits quorum sensing”.

Question: Which “inhibition of quorum sensing” value [3, 13] does the source give for O=C1OCC2OC(=O)c3cc(O)c(O)c(O)c3-c3c(O)c(O)c(O)c4c3C(=O)OC(C2OC(=O)c2cc(O)c(O)c(O)c2-c2c1cc(O)c(O)c2O)C1OC(=O)c2c-4c(O)c(O)c(O)c2C1O (centres unmarked) [Vescalagin] here?
Answer: The value was “inhibits quorum sensing”.

Question: What about the “inhibition of quorum sensing” value [6] of the same compound?
Answer: The value was “inhibits quorum sensing”.

Question: What about the “inhibition of quorum sensing” value [7] of the same compound?
Answer: The value was “inhibits quorum sensing”.

Question: With (+)-Catechin as the compound, how does the “effect on pyocyanin production” value [8] read?
Answer: The value was “slightly enhances production”.

Question: And the “bacterial growth in halo assay” value [9]?
Answer: Its value is “antibiotic effect inhibiting growth of the bacteria”.

Question: And the anti-biofilm activity [10]?
Answer: The anti-biofilm activity was “similar”.

Question: What about the “inhibition of violaceum production (quorum sensing)” value ([11]; highest concentration tested, 5 mg/mL, OD590 normalized to biomass) of the same compound?
Answer: Its value is “over 85%”.

Question: And the “inhibition of violaceum production” value ([11]; three lowest concentrations tested (1.25, 0.5 and 0.25 mg/mL))?
Answer: Its value is 10-25%.

Question: And the anti-biofilm activity [12]?
Answer: Its anti-biofilm activity is “similar”.
